Experimental findings from ChEMBL document CHEMBL1135818, “A new, potent urotensin II receptor peptide agonist containing a Pen residue at the disulfide bridge” (J Med Chem, 2002) are described below.

Bridge positions count the residues as written; N and C are the ends. Square brackets hold non-standard residues; d marks the D form. Peptide text beside a SMILES is read from it. dPen = CC(C)(S)[C@@H](N)C(=O)O; Pen = CC(C)(S)[C@H](N)C(=O)O

The target in one experiment is T1, Urotensin-2 receptor (Homo sapiens, UniProt Q9UKP6).
T1 sequence (Q9UKP6 whole entry): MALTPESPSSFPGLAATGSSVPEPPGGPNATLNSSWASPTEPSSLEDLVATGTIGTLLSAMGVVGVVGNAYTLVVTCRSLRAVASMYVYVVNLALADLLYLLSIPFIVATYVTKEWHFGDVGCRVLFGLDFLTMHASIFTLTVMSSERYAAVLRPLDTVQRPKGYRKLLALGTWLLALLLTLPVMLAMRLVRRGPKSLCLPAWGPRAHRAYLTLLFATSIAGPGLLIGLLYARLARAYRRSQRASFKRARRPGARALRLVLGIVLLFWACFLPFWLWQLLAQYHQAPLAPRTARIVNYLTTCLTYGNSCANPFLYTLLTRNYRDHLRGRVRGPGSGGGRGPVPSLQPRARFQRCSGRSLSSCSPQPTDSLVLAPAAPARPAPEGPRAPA
Briefly: Ability to displace radioligand [125I]Tyr-hU-II from human recombinant Urotensin 2 receptor in CHO-K1 cells. The class given is cell-based.

Experiment [1] concerns the target T2, Urotensin-2 receptor (Homo sapiens) (UniProt Q9UKP6).
T2 sequence (whole entry): T1 sequence (Q9UKP6 whole entry)
The note with it: CHO-K1.

`CC(C)[C@H](NC(=O)[C@H]1NC(=O)[C@H](Cc2ccc(O)cc2)NC(=O)[C@H](CCCCN)NC(=O)[C@H](Cc2c[nH]c3ccccc23)NC(=O)[C@H](Cc2ccccc2)NC(=O)[C@@H](NC(=O)[C@@H](N)CC(=O)O)CSSC1(C)C)C(=O)O`: the “Log Ki” value on Urotensin-2 receptor is listed as -7.9.
In the case of `CC(C)[C@H](NC(=O)[C@@H]1CSSC[C@@H](NC(=O)[C@H](CC(=O)O)NC(=O)[C@H]2CCCN2C(=O)[C@@H](NC(=O)[C@@H](N)CCC(=O)O)[C@@H](C)O)C(=O)N[C@H](Cc2ccccc2)C(=O)N[C@@H](Cc2c[nH]c3ccccc23)C(=O)N[C@H](CCCCN)C(=O)N[C@@H](Cc2ccc(O)cc2)C(=O)N1)C(=O)O`, the pD2 in experiment [1] was determined as 8.3.
On the same count and under the same terms, the value for `CC(C)[C@H](NC(=O)[C@@H]1NC(=O)[C@H](Cc2ccc(O)cc2)NC(=O)[C@H](CCCCN)NC(=O)[C@H](Cc2c[nH]c3ccccc23)NC(=O)[C@H](Cc2ccccc2)NC(=O)[C@H](NC(=O)[C@@H](N)CC(=O)O)CSSC1(C)C)C(=O)O` was 6.7.
Turning to `CC(C)[C@H](NC(=O)[C@H]1NC(=O)[C@H](Cc2ccc(O)cc2)NC(=O)[C@H](CCCCN)NC(=O)[C@H](Cc2c[nH]c3ccccc23)NC(=O)[C@H](Cc2ccccc2)NC(=O)[C@@H](NC(=O)[C@@H](N)CC(=O)O)C(C)(C)SSC1(C)C)C(=O)O` (H-D[Pen]FWKY[Pen]V-OH; disulfide 2-7), on Urotensin-2 receptor, the “Log Ki” value was -8.9.
In the case of `CC(C)[C@H](NC(=O)[C@@H]1CSSC[C@@H](NC(=O)[C@@H](N)CC(=O)O)C(=O)N[C@@H](Cc2ccccc2)C(=O)N[C@@H](Cc2c[nH]c3ccccc23)C(=O)N[C@@H](CCCCN)C(=O)N[C@@H](Cc2ccc(O)cc2)C(=O)N1)C(=O)O` (H-D[dC]FWKYCV-OH; disulfide 2-7), the pD2 in experiment [1] came to 8.6.
On the same count and under the same terms, the value for `CC(C)[C@H](NC(=O)[C@@H]1CSSC(C)(C)[C@@H](NC(=O)[C@@H](N)CC(=O)O)C(=O)N[C@@H](Cc2ccccc2)C(=O)N[C@@H](Cc2c[nH]c3ccccc23)C(=O)N[C@@H](CCCCN)C(=O)N[C@@H](Cc2ccc(O)cc2)C(=O)N1)C(=O)O` (H-D[dPen]FWKYCV-OH; disulfide 2-7) was 9.6; that for `CC(C)[C@H](NC(=O)[C@@H]1NC(=O)[C@H](Cc2ccc(O)cc2)NC(=O)[C@H](CCCCN)NC(=O)[C@H](Cc2c[nH]c3ccccc23)NC(=O)[C@H](Cc2ccccc2)NC(=O)[C@H](NC(=O)[C@@H](N)CC(=O)O)C(C)(C)SSC1(C)C)C(=O)O` (H-D[dPen]FWKY[dPen]V-OH; disulfide 2-7) was 8.2.
